In article PMC6695811, “Protein Phosphatase Ppz1 Is Not Regulated by a Hal3-Like Protein in Plant Pathogen Ustilago maydis” (International Journal of Molecular Sciences, 2019):

Experiments:
Experiment in all cases: phosphatase activity assay
Assay type in all cases: biochemical
Settings in all cases: 10 mM pNPP
UmPpz1-s = biological target: T1, UmPpz1-s (Mycosarcoma maydis, UniProt A0A0D1DW62)
T1 construct: gene UMAG_04827; short version lacking residues 1-8 (starts at Met9), pGEX-6p-1, E. coli BL21(DE3) RIL, GST tag cut by PreScission
T1 sequence (A0A0D1DW62 9-497): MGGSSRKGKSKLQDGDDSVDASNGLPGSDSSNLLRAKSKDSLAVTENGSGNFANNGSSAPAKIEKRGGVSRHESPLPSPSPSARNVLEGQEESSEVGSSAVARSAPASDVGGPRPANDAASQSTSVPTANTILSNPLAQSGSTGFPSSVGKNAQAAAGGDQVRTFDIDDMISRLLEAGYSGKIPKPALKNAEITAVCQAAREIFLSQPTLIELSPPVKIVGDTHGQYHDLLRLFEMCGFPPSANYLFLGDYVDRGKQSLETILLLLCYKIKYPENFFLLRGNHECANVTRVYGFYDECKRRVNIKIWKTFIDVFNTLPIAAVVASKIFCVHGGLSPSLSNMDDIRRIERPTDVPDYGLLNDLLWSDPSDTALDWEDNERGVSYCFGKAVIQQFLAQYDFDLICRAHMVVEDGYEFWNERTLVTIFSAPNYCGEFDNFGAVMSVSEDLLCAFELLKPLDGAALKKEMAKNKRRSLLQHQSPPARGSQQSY

UmPpz1 = biological target: T2, UmPpz1 (Mycosarcoma maydis, UniProt A0A0D1DW62)
T2 construct: gene UMAG_04827; full-length ORF, 497 residues, from FB1 genomic DNA in pGEX-6p-1, E. coli BL21(DE3) RIL, GST tag cut by PreScission
T2 sequence (A0A0D1DW62 1-497): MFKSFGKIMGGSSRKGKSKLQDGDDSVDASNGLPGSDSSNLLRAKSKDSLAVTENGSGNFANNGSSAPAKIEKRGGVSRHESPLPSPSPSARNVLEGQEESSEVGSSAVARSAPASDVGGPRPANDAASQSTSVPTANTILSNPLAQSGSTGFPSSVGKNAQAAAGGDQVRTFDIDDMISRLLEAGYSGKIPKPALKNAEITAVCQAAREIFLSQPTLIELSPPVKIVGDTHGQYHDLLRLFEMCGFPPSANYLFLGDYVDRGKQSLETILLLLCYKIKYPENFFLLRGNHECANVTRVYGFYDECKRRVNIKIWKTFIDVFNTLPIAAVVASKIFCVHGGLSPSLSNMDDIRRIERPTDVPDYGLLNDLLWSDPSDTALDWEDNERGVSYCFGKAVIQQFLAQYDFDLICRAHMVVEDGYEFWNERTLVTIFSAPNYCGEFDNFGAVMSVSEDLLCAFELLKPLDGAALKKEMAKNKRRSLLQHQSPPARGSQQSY

ScPpz1 = biological target: T3, ScPpz1 (Saccharomyces cerevisiae, UniProt P26570)
T3 construct: gene PPZ1; full length, 692 residues, GST fusion from E. coli BL21(DE3) RIL, GST tag cut by PreScission
T3 sequence (P26570 1-692): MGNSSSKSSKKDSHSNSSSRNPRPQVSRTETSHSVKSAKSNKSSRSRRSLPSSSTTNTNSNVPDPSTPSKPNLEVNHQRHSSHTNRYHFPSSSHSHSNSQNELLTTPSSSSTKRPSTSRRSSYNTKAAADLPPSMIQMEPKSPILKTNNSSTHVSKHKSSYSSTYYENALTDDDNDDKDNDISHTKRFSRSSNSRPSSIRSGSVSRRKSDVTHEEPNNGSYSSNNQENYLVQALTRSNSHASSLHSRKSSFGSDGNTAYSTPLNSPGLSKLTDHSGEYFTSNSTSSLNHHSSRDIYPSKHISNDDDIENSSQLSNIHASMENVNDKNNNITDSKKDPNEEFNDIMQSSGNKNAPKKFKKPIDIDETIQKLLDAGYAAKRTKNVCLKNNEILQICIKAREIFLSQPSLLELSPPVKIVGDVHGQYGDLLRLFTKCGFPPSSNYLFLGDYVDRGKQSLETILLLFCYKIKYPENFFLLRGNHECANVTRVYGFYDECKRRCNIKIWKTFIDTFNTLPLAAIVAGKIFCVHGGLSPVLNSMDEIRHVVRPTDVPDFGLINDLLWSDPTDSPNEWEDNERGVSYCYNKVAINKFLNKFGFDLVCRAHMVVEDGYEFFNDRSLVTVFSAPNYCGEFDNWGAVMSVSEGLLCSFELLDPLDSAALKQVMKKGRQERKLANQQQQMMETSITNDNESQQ

**Q.** Which phosphatase activity assay (UmPpz1-s) does the source give for O=[N+]([O-])c1ccc(OP(=O)(O)O)cc1 [p-nitrophenylphosphate] here?
**A.** The recombinant enzyme (as well as UmPpz1-s) showed phosphatase activity against the synthetic substrate pNPP

**Q.** What about the phosphatase activity assay (UmPpz1) of the same compound?
**A.** showed phosphatase activity against the synthetic substrate pNPP

**Q.** What about the phosphatase activity assay (ScPpz1) of the same compound?
**A.** substrate pNPP which was similar to that observed for ScPpz1
